Non-standard residues stand in square brackets, D forms with d. Residues, ends and D or L forms follow the SMILES beside them. *: point of attachment. X1 = O=C(CCCC[C@@H]1SC[C@@H]2NC(=O)N[C@@H]21)NCCCOCCOCCOCCCN*; PEG12 = NCCOCCOCCOCCOCCOCCOCCOCCOCCOCCOCCOCCOCCC(=O)O
Columns and labels:
[1] = system: H1299 cells; assay: Cell binding and internalization by flow cytometry, relative (normalized) uptake of peptide-streptavidin-phycoerythrin; assay type: cell-based, human
Experimental: MGS4 was initially selected by phage display biopanning of a peptide library on live cells. […] As such, multivalent binding is often required. To ascertain whether multivalent binding is required for MGS4 internalization, monomeric (MGS4_V2) and tetrameric (MGS4_V1) peptides were synthesized and labeled as described (Supplementary Figure 1). After incubation of varying peptide concentrations on live cells, surface-bound peptide was removed by low pH washes, as well as trypsinization. Relative internalization was measured by flow cytometry to determine an EC50 value which represents the concentration of peptide producing half-maximal internalization. This measurement is dependent on the affinity of the peptide for its cellular target and the rate of internalization. This is a more accurate representation of the biological situation and useful in evaluating the peptides as drug delivery agents. As expected for receptor-mediated endocytosis, uptake of MGS4 is saturable with increasing concentration.
Fig. 1 Monomeric and tetrameric MGS4 have similar binding, internalization and subcellular location. a Binding and internalization of tetrameric MGS4_V1 and monomeric MGS4_V2 on live H1299 cells in culture. Cells were incubated with the peptide conjugated to streptavidin-phycoerythrin for 1 h at 37 °C. Non-internalized peptide was removed and the cells were analyzed by flow cytometry. b H1299 cells were incubated with MGS4_V1 or MGS4_V2 conjugated to streptavidin-Alexa Fluor 555 (red) for 1 h, washed, fixed and counterstained with WGA-Alexa Fluor 488 (green, cell membrane) and DAPI (blue, nuclei) and analyzed by fluorescence microscopy. The scale bar represents 20 µm. MGS4_V1 and MGS4_V2 internalize to a similar degree and localize to a similar destination. c Truncated monomeric MGS4 peptides have similar EC50 as the parental full-length peptide. Individual measurements are shown. The mean is shown as an “X” and black error bars represent standard error for a minimum of three experimental replicates (SEM). All original binding data and nonlinear regression analysis of the data are included in the supplementary materials.
Biotinylated peptide was conjugated to streptavidin-R-phycoerythrin or streptavidin-Alexa Fluor 647 (1:1 molar ratio) for 30 min. The open binding sites on streptavidin were quenched with RPMI 1640 and diluted to the indicated concentration. Tumor cells were grown to 90% confluency in a 12 well plate, then incubated with 500 µl peptide-dye conjugate at 37 °C. After 1 h, peptide was removed, and the cells were washed 3x with PBS (137 mM NaCl, 2.7 mM KCl, 10 mM Na2HPO4, 1.8 mM KH2PO4, pH 7.4), 2x with 0.1 M HCl-glycine pH2.2 in 0.9% NaCl, and 1x PBS rinse. Cells were removed by trypsinization. Flow cytometry was performed on a BD FACSCelesta, and data were analyzed on Flowing software. Cells were gated based on the forward and side scatter to include only viable cells and a minimum of 10,000 events were counted. A region containing <5% of the cells in the negative control was established, and relative peptide uptake by the mean fluorescence intensity of that population. For absolute peptide uptake per cell, a standard curve was generated using Quantum™ Alexa Fluor 647 microspheres (Bangs Laboratory, Fishers, IN). A representative linear regression showing the correlation of molecule equivalents soluble fluorophores (MESF) vs the mean fluorescence intensity (MFI) is shown in Supplemental Figure 6. Cells were gated based on the forward and side scatter to include only viable cells and a minimum of 10,000 events were counted. MFI was determined at 50% at peak height. Molecules internalized per cell were determined by the standard curve relating MESF to MFI and divided by the number dye molecules/MGS conjugate. An example is shown in supplemental Figure 7. GraphPad Prism® was used for non-linear regression curve fitting to calculate an EC50. […]

[2] = system: H1299 xenograft tumor; assay: Tumor homing by near infrared imaging; assay type: in vivo, mouse
Description: Animal experiments were approved by SRI International’s Institutional Animal Care and Use committee (Animal Welfare Assurance Number A3025-01, protocol 14008). H2009 cells (10^6) or H1299 cells (10^6) were implanted subcutaneously on the flank of female Nu/Nu mice (Jackson Laboratory, Bar Harbor, ME). When tumors reached 100 mm^3, in vivo experiments were initiated. For imaging, the indicated peptides were conjugated directly to Alexa Fluor 750 near-infrared dye (Supplemental Fig. 1). Four animals per group were used. Peptides were injected into the lateral tail vein for a total dose 15 µgs/mouse delivered in 100 µL. At set period of times, animals were anesthetized and imaged on an IVIS® (Perkin Elmer). Regions of interest were drawn around the tumor and the total radiant efficiency was measured. For therapeutic experiments, we chose to use the H2009 tumor model as it has a higher tumor take rate and more consistent growth rate than the H1299 model. Biotinylated MGS4_V8 (N = 9) or MGS4_V6 (N = 8) were conjugated to streptavidin-saporin and administered via tail-vein injection (7.5 µg/100 µl) 2x/week for 2.5 weeks for a total of 5 treatments. Nontreated animals (N = 8) served as the control. Tumor size was measured with calipers every other day and volume was calculated as (π/6)(l*w)^3/2. Statistical analysis was performed on GraphPad Prism®.
Supplemental Figure 1. […]
-Qdot605, streptavidin-R- phycoerythrin, and streptavidin-saporin. b) For NIR imaging experiments, Alexa Fluor 750 was directly conjugated to the peptide by the reaction of maleimide modified dye with a thiol containing MGS4_V8 peptide. c ) The structure of the monomeric MGS4 used for serum stabilities. […]
Supplemental Figure 5. MGS4_V8 homes to H12 99 xenograft tumor after systemic delivery.
H1299 tumor bearing nude mice ( N=4 ) were injected I.V. with MGS4_V8 or MGS4_V6 conjugated to NIR dye Alexa Fluor 750. At 24, 48, and 72 hours post injection, mice were anesthetized and imaged on an IVIS® (Perkin E lme r ) to measure total radiant efficiency in each tumor. MGS4_V8 accumulates in tumor ≈3-fold better than control peptide, MGS4_V6. MGS4_V6 accumulation is statistically no different than […]
untreated tumo rs. […]
A standard curve was generated using Quantum ™ Alexa Fluor 647 microspheres (Bangs Laboratory, Fishers, IN). A representative linear regression showing the correlation of molecule equivalents soluble fluorophores (MESF) vs the mean fluorescence intensity (MFI) is shown. The MFI is determined at 50% […]
Supplemental Figure 7. Example of flow cytometry data: MGS4_V10 Uptake on H1993 Cells .
The gating strategy, cell population data , and MFI determination for an example binding experiment is shown. Cells were gated by forward and side scatter to exclude nonviable cells or cell clusters as shown.
Individual dot plots and histograms are shown for a concentration range of 0.1 nM – 50 nM. The MFI is determined at 50% peak height. Molecules internalized per cell were determined by the standard curve relating MESF to MFI and divided by the number dye molecules/MGS conjugate.

Molecule	Bmax (best-fit) ([1]; Supplementary Table 2, normalized binding)	Total Radiant Efficiency ([2]; 24 h, Mouse 1)	Total Radiant Efficiency ([2]; 24 h, Mouse 2)	Total Radiant Efficiency ([2]; 24 h, Mouse 3)	Total Radiant Efficiency ([2]; 24 h, Mouse 4)	Total Radiant Efficiency ([2]; 48 h, Mouse 1)	Total Radiant Efficiency ([2]; 48 h, Mouse 2)	Total Radiant Efficiency ([2]; 48 h, Mouse 3)	Total Radiant Efficiency ([2]; 48 h, Mouse 4)	Total Radiant Efficiency ([2]; 72 h, Mouse 1)	Total Radiant Efficiency ([2]; 72 h, Mouse 2)	Total Radiant Efficiency ([2]; 72 h, Mouse 3)	Total Radiant Efficiency ([2]; 72 h, Mouse 4)	fold tumor accumulation versus control peptide MGS4_V6 ([2]; H1299 tumors, 24-72 h, Alexa Fluor 750 conjugate, N=4)	EC50 (nM) ([1]; H1299 cells, 1 h at 37 °C, normalized uptake, one-site specific binding fit, Average ± SEM, minimum 3 replicates)
CC(=O)N[C@@H](Cc1ccccc1)C(=O)N[C@@H](Cc1c[nH]cn1)C(=O)N[C@@H](C)C(=O)N[C@H](C(=O)N1CCC[C@H]1C(=O)N[C@@H](CCC(N)=O)C(=O)N[C@@H](CO)C(=O)N[C@@H](Cc1ccccc1)C(=O)N[C@@H](Cc1ccc(O)cc1)C(=O)N[C@H](C(=O)NCCOCCOCCOCCOCCOCCOCCOCCOCCOCCOCCOCCOCCC(=O)N[C@@H](CCC(=O)NCCCOCCOCCOCCCNC(=O)CCCC[C@@H]1SC[C@@H]2NC(=O)N[C@@H]21)C(N)=O)[C@@H](C)O)C(C)C [MGS4_V8] (Ac-FHAVPQSFYT[PEG12]E(X1)-NH2)	1.423	1.32e+009	1.83e+009	9.57e+008	2.96e+009	9.13e+008	9.76e+008	7.72e+008	1.71e+009	9.42e+008	7.37e+008	1.06e+009	1.35e+009	≈ 3 fold	–
*HAVPQSFYT** [MGS4_V6]	–	7.74e+008	4.6e+008	7.58e+008	3.13e+008	5.44e+008	3.19e+008	3.39e+008	3.19e+008	5.46e+008	3.28e+008	3.61e+008	4.28e+008	–	Not Detected^2

Source: paper PMC9845330 (Communications Biology, 2023)
